Measured values as given in PubChem BioAssay AID256 (DTP/NCI, 2004).
Values joined by “and” are separate entries in the source; they are usually repeats but may differ in a detail not shown here. Equal values may be shown once. Inconclusive results and toxic doses are left out.

Test system: CD2F1 mice, L1210 leukemia ip, survival T/C
Experiment: NCI In Vivo Anticancer Drug Screen. Data for tumor model L1210 Leukemia (intraperitoneal) in CD2F1 (CDF1) mice
Conditions: higher = longer survival
Summary of the method: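 Activity against a transplanted murine tumor was judged by comparing the compound group with a vehicle group. The outcome in the treated animals was divided by that in the controls.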

[1] = endpoint: mean survival time, dose: 50.0 mg/kg/injection, schedule: Q01DX009 (ip), vehicle: saline with Tween-80
[2] = endpoint: mean survival time, dose: 100.0 mg/kg/injection, schedule: Q01DX009 (ip), vehicle: saline with Tween-80
[3] = endpoint: mean survival time, dose: 100.0 mg/kg/injection, schedule: Q04DX003 (ip), vehicle: saline with Tween-80
[4] = endpoint: mean survival time, dose: 200.0 mg/kg/injection, schedule: Q01DX009 (ip), vehicle: saline with Tween-80
[5] = endpoint: mean survival time, dose: 200.0 mg/kg/injection, schedule: Q04DX003 (ip), vehicle: saline with Tween-80
[6] = endpoint: mean survival time, dose: 100.0 mg/kg/injection, schedule: Q01DX001 (ip), vehicle: saline
[7] = endpoint: mean survival time, dose: 200.0 mg/kg/injection, schedule: Q01DX001 (ip), vehicle: saline
[8] = endpoint: mean survival time, dose: 400.0 mg/kg/injection, schedule: Q01DX001 (ip), vehicle: saline
[9] = endpoint: mean survival time, dose: 400.0 mg/kg/injection, schedule: Q04DX003 (ip), vehicle: saline with Tween-80
[10] = endpoint: mean survival time, dose: 100.0 mg/kg/injection, schedule: Q01DX001 (ip), vehicle: saline with Tween-80
[11] = endpoint: mean survival time, dose: 200.0 mg/kg/injection, schedule: Q01DX001 (ip), vehicle: saline with Tween-80
[12] = endpoint: mean survival time, dose: 400.0 mg/kg/injection, schedule: Q01DX001 (ip), vehicle: saline with Tween-80
[13] = endpoint: mean survival time, dose: 50.0 mg/kg/injection, schedule: Q01DX009 (ip), vehicle: Klucel (hydroxypropylcellulose) (HPC)
[14] = endpoint: mean survival time, dose: 25.0 mg/kg/injection, schedule: Q01DX009 (ip), vehicle: saline with Tween-80

## O=NNc1cnccn1
endpoint: median survival time, dose: 3.12 mg/kg/injection, schedule: Q01DX009 (ip), vehicle: water
  T/C: 112 % of control
endpoint: median survival time, dose: 6.25 mg/kg/injection, schedule: Q01DX009 (ip), vehicle: water
  T/C: 113 % of control and 109 % of control
endpoint: median survival time, dose: 8.6 mg/kg/injection, schedule: Q01DX009 (ip), vehicle: water
  T/C: 121 % of control and 107 % of control
endpoint: median survival time, dose: 11.0 mg/kg/injection, schedule: Q01DX009 (ip), vehicle: water
  T/C: 121 % of control and 124 % of control
endpoint: median survival time, dose: 12.5 mg/kg/injection, schedule: Q01DX009 (ip), vehicle: water
  T/C: 120 % of control and 123 % of control
endpoint: median survival time, dose: 14.4 mg/kg/injection, schedule: Q01DX009 (ip), vehicle: water
  T/C: 116 % of control and 112 % of control
endpoint: median survival time, dose: 24.0 mg/kg/injection, schedule: Q01DX009 (ip), vehicle: water
  T/C: 124 % of control
endpoint: median survival time, dose: 38.0 mg/kg/injection, schedule: Q01DX009 (ip), vehicle: water
  T/C: 221 % of control and 223 % of control
endpoint: median survival time, dose: 40.0 mg/kg/injection, schedule: Q01DX009 (ip), vehicle: water
  T/C: 183 % of control
endpoint: median survival time, dose: 50.0 mg/kg/injection, schedule: Q01DX009 (ip), vehicle: water
  T/C: 121 % of control
endpoint: median survival time, dose: 100.0 mg/kg/injection, schedule: Q01DX009 (ip), vehicle: water
  T/C: 92 % of control

## COc1ccc([Se][Se]c2ccc(OC)cc2NC(C)=O)c(NC(C)=O)c1
[1]
  T/C: 97 % of control
[2]
  T/C: 101 % of control
[3]
  T/C: 89 % of control
[4]
  T/C: 105 % of control
[5]
  T/C: 87 % of control

## COC(=O)CNC(=O)C(F)(F)F
[6]
  T/C: 104 % of control
[3]
  T/C: 103 % of control
[7]
  T/C: 112 % of control
[5]
  T/C: 101 % of control
[8]
  T/C: 104 % of control
[9]
  T/C: 103 % of control

## CN(CCCCl)CCCCl
endpoint: mean survival time, dose: 75.0 mg/kg/injection, schedule: Q01DX001 (ip), vehicle: saline
  T/C: 103 % of control

## COc1ccc2c(c1)C1(C)CCCC(C#N)=C1CC2 (stereo unspecified)
[6]
  T/C: 96 % of control
[7]
  T/C: 96 % of control
[8]
  T/C: 92 % of control

## Cc1ccc(S(=O)(=O)SCc2ccccc2)cc1
endpoint: mean survival time, dose: 100.0 mg/kg/injection, schedule: Q01DX009 (ip), vehicle: other
  T/C: 107 % of control
endpoint: mean survival time, dose: 200.0 mg/kg/injection, schedule: Q01DX009 (ip), vehicle: other
  T/C: 96 % of control

## COc1ccc(CCNC(=O)Cc2ccc3cc(OC)c(OC)cc3c2)cc1OC
[2]
  T/C: 91 % of control
[3]
  T/C: 95 % of control
[4]
  T/C: 89 % of control
[5]
  T/C: 100 % of control

## O=C1C(Cc2ccccc2)CCCC1Cc1ccccc1 (stereo unspecified)
[10]
  T/C: 100 % of control
[11]
  T/C: 98 % of control
[12]
  T/C: 102 % of control

## O=C(Nc1ccccc1CCl)Nc1ccccc1CCl
endpoint: median survival time, dose: 50.0 mg/kg/injection, schedule: Q01DX005 (ip), vehicle: saline with Tween-80
  T/C: 111 % of control
endpoint: median survival time, dose: 100.0 mg/kg/injection, schedule: Q01DX005 (ip), vehicle: saline with Tween-80
  T/C: 117 % of control
endpoint: median survival time, dose: 200.0 mg/kg/injection, schedule: Q01DX005 (ip), vehicle: saline with Tween-80
  T/C: 115 % of control
endpoint: median survival time, dose: 400.0 mg/kg/injection, schedule: Q01DX005 (ip), vehicle: saline with Tween-80
  T/C: 121 % of control

## CC1NC1(c1ccccc1)n1ccnc1 (stereo unspecified)
endpoint: mean survival time, dose: 12.5 mg/kg/injection, schedule: Q01DX009 (ip), vehicle: water
  T/C: 95 % of control
endpoint: mean survival time, dose: 25.0 mg/kg/injection, schedule: Q01DX009 (ip), vehicle: water
  T/C: 99 % of control
endpoint: mean survival time, dose: 50.0 mg/kg/injection, schedule: Q01DX009 (ip), vehicle: water
  T/C: 99 % of control
endpoint: mean survival time, dose: 100.0 mg/kg/injection, schedule: Q01DX009 (ip), vehicle: water
  T/C: 103 % of control
endpoint: mean survival time, dose: 200.0 mg/kg/injection, schedule: Q01DX009 (ip), vehicle: water
  T/C: 90 % of control

## ClC1CCC(Cl)C2CCC3C(Cl)CCC1[S+]23 (stereo unspecified)
endpoint: mean survival time, dose: 3.12 mg/kg/injection, schedule: Q01DX009 (ip), vehicle: Klucel (hydroxypropylcellulose) (HPC)
  T/C: 104 % of control
endpoint: mean survival time, dose: 6.25 mg/kg/injection, schedule: Q01DX009 (ip), vehicle: Klucel (hydroxypropylcellulose) (HPC)
  T/C: 97 % of control
endpoint: mean survival time, dose: 12.5 mg/kg/injection, schedule: Q01DX009 (ip), vehicle: Klucel (hydroxypropylcellulose) (HPC)
  T/C: 95 % of control

## C/C(=N/NC(=O)c1ccccc1)c1ccc(Cl)cc1Cl
[13]
  T/C: 89 % of control

## COCCC1(CN2c3ccccc3Sc3ccc(Cl)cc32)CCN(C)C1 (stereo unspecified)
endpoint: mean survival time, dose: 100.0 mg/kg/injection, schedule: Q04DX003 (ip), vehicle: saline
  T/C: 102 % of control
endpoint: mean survival time, dose: 200.0 mg/kg/injection, schedule: Q04DX003 (ip), vehicle: saline
  T/C: 105 % of control

## CCC(=O)c1ccc(NC(=O)Nc2ncccn2)cc1
[13]
  T/C: 91 % of control
endpoint: mean survival time, dose: 100.0 mg/kg/injection, schedule: Q01DX009 (ip), vehicle: Klucel (hydroxypropylcellulose) (HPC)
  T/C: 94 % of control

## CC(=O)CC(=O)N(C)Cc1ccccc1
[10]
  T/C: 101 % of control
[11]
  T/C: 104 % of control
[12]
  T/C: 107 % of control

## CN=C(N)N/N=C(\C)c1ccc2oc3ccc(/C(C)=N/NC(N)=NC)cc3c2c1
endpoint: median survival time, dose: 4.7 mg/kg/injection, schedule: Q01DX009 (ip), vehicle: saline with Tween-80
  T/C: 123 % of control
endpoint: median survival time, dose: 6.25 mg/kg/injection, schedule: Q01DX009 (ip), vehicle: saline with Tween-80
  T/C: 117 % of control
endpoint: median survival time, dose: 9.38 mg/kg/injection, schedule: Q01DX009 (ip), vehicle: saline with Tween-80
  T/C: 121 % of control
endpoint: median survival time, dose: 12.5 mg/kg/injection, schedule: Q01DX009 (ip), vehicle: saline with Tween-80
  T/C: 123 % of control
endpoint: median survival time, dose: 50.0 mg/kg/injection, schedule: Q01DX009 (ip), vehicle: saline with Tween-80
  T/C: 122 % of control
endpoint: median survival time, dose: 75.0 mg/kg/injection, schedule: Q01DX009 (ip), vehicle: saline with Tween-80
  T/C: 90 % of control

## CC(=O)OC1CCC2(C)CCCC(O)C2(O)C1 (stereo unspecified)
[14]
  T/C: 103 % of control
[1]
  T/C: 116 % of control
[2]
  T/C: 107 % of control
endpoint: mean survival time, dose: 100.0 mg/kg/injection, schedule: Q04DX003 (ip), vehicle: acetone
  T/C: 101 % of control
endpoint: mean survival time, dose: 150.0 mg/kg/injection, schedule: Q01DX009 (ip), vehicle: saline
  T/C: 97 % of control
endpoint: mean survival time, dose: 225.0 mg/kg/injection, schedule: Q01DX009 (ip), vehicle: saline
  T/C: 100 % of control
endpoint: mean survival time, dose: 335.0 mg/kg/injection, schedule: Q01DX009 (ip), vehicle: saline
  T/C: 91 % of control

## C=C1C(=O)OCC1C(=O)O (stereo unspecified)
endpoint: mean survival time, dose: 4.0 mg/kg/injection, schedule: Q01DX009 (ip), vehicle: saline
  T/C: 97 % of control and 106 % of control
endpoint: mean survival time, dose: 8.0 mg/kg/injection, schedule: Q01DX009 (ip), vehicle: saline
  T/C: 96 % of control and 101 % of control
endpoint: mean survival time, dose: 16.0 mg/kg/injection, schedule: Q01DX009 (ip), vehicle: saline
  T/C: 101 % of control and 110 % of control
endpoint: mean survival time, dose: 32.0 mg/kg/injection, schedule: Q01DX009 (ip), vehicle: saline
  T/C: 104 % of control and 110 % of control
endpoint: mean survival time, dose: 64.0 mg/kg/injection, schedule: Q01DX009 (ip), vehicle: saline
  T/C: 88 % of control

## CC(C)C(O)c1ccccc1 (stereo unspecified)
endpoint: mean survival time, dose: 12.5 mg/kg/injection, schedule: Q01DX009 (ip), vehicle: saline with Tween-80
  T/C: 103 % of control
endpoint: mean survival time, dose: 25.0 mg/kg/injection, schedule: Q01DX005 (ip), vehicle: saline with Tween-80
  T/C: 92 % of control
[14]
  T/C: 106 % of control
endpoint: mean survival time, dose: 50.0 mg/kg/injection, schedule: Q01DX005 (ip), vehicle: saline with Tween-80
  T/C: 95 % of control
[1]
  T/C: 95 % of control
endpoint: mean survival time, dose: 50.0 mg/kg/injection, schedule: Q04DX002 (ip), vehicle: saline with Tween-80
  T/C: 108 % of control
endpoint: mean survival time, dose: 100.0 mg/kg/injection, schedule: Q01DX005 (ip), vehicle: saline with Tween-80
  T/C: 88 % of control
[2]
  T/C: 88 % of control
endpoint: mean survival time, dose: 100.0 mg/kg/injection, schedule: Q04DX002 (ip), vehicle: saline with Tween-80
  T/C: 101 % of control
endpoint: mean survival time, dose: 200.0 mg/kg/injection, schedule: Q04DX002 (ip), vehicle: saline with Tween-80
  T/C: 89 % of control

## COc1ccc(-n2cc(C#N)c3c(C)cc(C)nc32)cc1
[6]
  T/C: 100 % of control
[7]
  T/C: 96 % of control
[8]
  T/C: 87 % of control

## O=C1OC(c2ccccc2)(c2ccccc2)c2cccc3cccc1c23
[3]
  T/C: 93 % of control
[9]
  T/C: 86 % of control

## O=P(N1CCOCC1)(N1CC1)N1CC1
endpoint: mean survival time, dose: 1.56 mg/kg/injection, schedule: Q01DX009 (ip), vehicle: saline
  T/C: 103 % of control
endpoint: mean survival time, dose: 3.12 mg/kg/injection, schedule: Q01DX009 (ip), vehicle: saline
  T/C: 111 % of control
endpoint: mean survival time, dose: 12.5 mg/kg/injection, schedule: Q01DX009 (ip), vehicle: saline
  T/C: 180 % of control

## S=C(Nc1ccccc1)Nc1ccc(NC(=S)Nc2ccccc2)cc1
[2]
  T/C: 86 % of control
[3]
  T/C: 92 % of control
[5]
  T/C: 92 % of control
endpoint: mean survival time, dose: 400.0 mg/kg/injection, schedule: Q01DX009 (ip), vehicle: saline with Tween-80
  T/C: 94 % of control
[9]
  T/C: 86 % of control
